Results published in the supplement of paper PMC4862054.

Assays:
Settings in all cases: incubation time: 72 h
MDA-MB-231 [1] = experiment: normalised viability (% of control), CellTiter-Blue; higher = more viable cells (100 = DMSO, 0 = benzethonium chloride kill control)
Experimental: (§1)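 DSRT, CellTiter-Blue viability, 72 h incubation. Signal is normalised to DMSO and benzethonium chloride controls. Value is the normalised response at dose 1.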

MDA-MB-453 [2] = experiment: as above
Experimental: as §1

MDA-MB-436 [3] = experiment: as above
Experimental: as §1

HCC1937 [4] = experiment: as above
Experimental: as §1

CAL-51 [5] = experiment: as above
Experimental: as §1

Hs578T [6] = experiment: as above
Experimental: as §1

CAL-85-1 [7] = experiment: as above
Experimental: as §1

HCC1599 [8] = experiment: as above
Experimental: as §1

HCC1143 [9] = experiment: as above
Experimental: as §1

SK-BR-3 [10] = experiment: as above
Experimental: as §1

MFM-223 [11] = experiment: as above
Experimental: as §1

MDA-MB-468 [12] = experiment: as above
Experimental: as §1

BT-474 [13] = experiment: as above
Experimental: as §1

BT-549 [14] = experiment: as above
Experimental: as §1

CAL-120 [15] = experiment: as above
Experimental: as §1

HDQ-P1 [16] = experiment: as above
Experimental: as §1

DU-4475 [17] = experiment: as above
Experimental: as §1

CAL-148 [18] = experiment: as above
Experimental: as §1

MDA-MB-231 [19] = experiment: normalised response (% of control), CellTiter-Glo; higher = more viable cells (100 = DMSO, 0 = benzethonium chloride kill control)
Outline: (§2)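 In 384-well plates holding compound at 5 concentrations in 10-fold steps over a 10,000-fold range specific to each compound, breast cancer cell lines were seeded as 20 µl suspension and incubated 72 h. CellTox Green fluorescence was measured at 485/520 nm, after which CellTiter-Glo luminescence was measured following 10 min at room temperature. Plate signals were normalised to 0.1 % DMSO (100) and a positive kill control (0), and each value is the normalised signal at a single concentration.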

MDA-MB-453 [20] = experiment: as above
Outline: as §2

MDA-MB-436 [21] = experiment: as above
Outline: as §2

HCC1937 [22] = experiment: as above
Outline: as §2

CAL-51 [23] = experiment: as above
Outline: as §2

Hs578T [24] = experiment: as above
Outline: as §2

MCF-10A = experiment: as above
Outline: as §2

CAL-85-1 [25] = experiment: as above
Outline: as §2

HCC1599 [26] = experiment: as above
Outline: as §2

HCC1143 [27] = experiment: as above
Outline: as §2

SK-BR-3 [28] = experiment: as above
Outline: as §2

MFM-223 [29] = experiment: as above
Outline: as §2

MDA-MB-468 [30] = experiment: as above
Outline: as §2

BT-474 [31] = experiment: as above
Outline: as §2

BT-549 [32] = experiment: as above
Outline: as §2

CAL-120 [33] = experiment: as above
Outline: as §2

HDQ-P1 [34] = experiment: as above
Outline: as §2

DU-4475 [35] = experiment: as above
Outline: as §2

CAL-148 [36] = experiment: as above
Outline: as §2

SMILES | normalised viability (MDA-MB-231 [1]) [%] | normalised viability (MDA-MB-453 [2]) [%] | normalised viability (MDA-MB-436 [3]) [%] | normalised viability (HCC1937 [4]) [%] | normalised viability (CAL-51 [5]) [%] | normalised viability (Hs578T [6]) [%] | normalised viability (CAL-85-1 [7]) [%] | normalised viability (HCC1599 [8]) [%] | normalised viability (HCC1143 [9]) [%] | normalised viability (SK-BR-3 [10]) [%] | normalised viability (MFM-223 [11]) [%] | normalised viability (MDA-MB-468 [12]) [%] | normalised viability (BT-474 [13]) [%] | normalised viability (BT-549 [14]) [%] | normalised viability (CAL-120 [15]) [%] | normalised viability (HDQ-P1 [16]) [%] | normalised viability (DU-4475 [17]) [%] | normalised viability (CAL-148 [18]) [%] | normalised response (MDA-MB-231 [19]) [%] | normalised response (MDA-MB-453 [20]) [%] | normalised response (MDA-MB-436 [21]) [%] | normalised response (HCC1937 [22]) [%] | normalised response (CAL-51 [23]) [%] | normalised response (Hs578T [24]) [%] | normalised response (MCF-10A) [%] | normalised response (CAL-85-1 [25]) [%] | normalised response (HCC1599 [26]) [%] | normalised response (HCC1143 [27]) [%] | normalised response (SK-BR-3 [28]) [%] | normalised response (MFM-223 [29]) [%] | normalised response (MDA-MB-468 [30]) [%] | normalised response (BT-474 [31]) [%] | normalised response (BT-549 [32]) [%] | normalised response (CAL-120 [33]) [%] | normalised response (HDQ-P1 [34]) [%] | normalised response (DU-4475 [35]) [%] | normalised response (CAL-148 [36]) [%]
C[C@@]1(C(=O)Nc2ccc(F)nc2)CCCN1c1nc(Nc2cc(C3CC3)n[nH]2)c2cccn2n1 (1 nM) | 115 | 98.1 | 122 | 118 | 99.6 | 104 | 92.9 | 102 | 92 | 101 | 96.1 | 107 | 99 | 88.2 | 90.9 | 95.4 | 105 | 97.1 | 94.2 | 91.9 | 83.9 | 88.7 | 95.1 | 95.3 | 77.6 | 93 | 90.4 | 89 | 87.3 | 87.7 | 93.6 | 93 | 95.9 | 87.5 | 91.2 | 95.2 | 83.3
O=c1[nH]cc(F)c(=O)[nH]1 [Fluorouracil] (1 nM) | 112 | 115 | 94.8 | 90.6 | 100 | 122 | 106 | 80.1 | 102 | 103 | 106 | 113 | 107 | 114 | 103 | 110 | 107 | 109 | 106 | 110 | 119 | 95.1 | 124 | 106 | 113 | 105 | 95.8 | 102 | 108 | 110 | 97.2 | 99.5 | 107 | 108 | 105 | 100 | 105
CC(C)C[C@H](NC(=O)[C@H](Cc1ccccc1)NC(=O)c1cnccn1)B(O)O [Bortezomib] (0.1 nM) | 91.9 | 101 | 103 | 82.9 | 97.3 | 96.4 | 104 | 122 | 98.8 | 88.8 | 101 | 91.8 | 75.1 | 82.3 | 98.8 | 92.2 | 129 | 104 | 101 | 103 | 93.4 | 96.2 | 90.9 | 104 | 113 | 95.6 | 95.9 | 100 | 101 | 103 | 89.8 | 98.6 | 91.5 | 102 | 93.6 | 103 | 95.7
COc1c(C)cnc(Cn2cnc3c(Cl)nc(N)nc32)c1C [BIIB021] (1 nM) | 76.3 | 93.9 | 102 | 93.4 | 101 | 105 | 78.1 | 143 | 82.9 | 75.8 | 80.8 | 94.6 | 91.7 | 97.7 | 76.8 | 86.4 | 87.7 | 96.5 | 112 | 106 | 99 | 103 | 74 | 106 | 104 | 98.1 | 124 | 97.6 | 93.6 | 102 | 101 | 99.1 | 95.6 | 103 | 95.6 | 103 | 106
COC1=CC(c2cc3ccccc3[nH]2)=N/C1=C\c1[nH]c(C)cc1C [Obatoclax] (1 nM) | 71.4 | 86.2 | 83.5 | 90.5 | 105 | 103 | 78.3 | 85.6 | 81 | 74.9 | 81 | 99 | 96.2 | 90.6 | 79.6 | 78.8 | 93.6 | 94.7 | 96.6 | 90.6 | 95.6 | 95.4 | 111 | 93.5 | 87 | 95 | 87.7 | 92.5 | 89 | 92.8 | 98.7 | 96.6 | 97.7 | 96.4 | 92.9 | 100 | 87.8
CN1CCN(c2ccc3nc(-c4c(N)c5c(F)cccc5[nH]c4=O)[nH]c3c2)CC1 [Dovitinib] (1 nM) | 84.5 | 98.3 | 105 | 92.2 | 114 | 96.5 | 82 | 92.6 | 87.3 | 77.6 | 80.6 | 89.2 | 110 | 96.2 | 78.8 | 87.4 | 113 | 104 | 102 | 102 | 99.5 | 96.3 | 106 | 103 | 89.3 | 100 | 105 | 98.3 | 94.1 | 95.4 | 99.6 | 99.9 | 102 | 94.9 | 96 | 96.2 | 98.2
CC(C)(C)c1cc(NC(=O)Nc2ccc(-c3cn4c(n3)sc3cc(OCCN5CCOCC5)ccc34)cc2)no1 [Quizartinib] (0.1 nM) | 105 | 113 | 98.1 | 109 | 103 | 120 | 89.4 | 89.4 | 99.6 | 90.9 | 81.8 | 92.3 | 115 | 92.8 | 99.7 | 74.7 | 117 | 105 | 106 | 105 | 101 | 103 | 87.7 | 99.8 | 101 | 110 | 112 | 100 | 109 | 108 | 107 | 108 | 96.2 | 103 | 99.5 | 104 | 110
O=C(c1ccc(OCCN2CCCCC2)cc1)c1c(-c2ccc(O)cc2)sc2cc(O)ccc12 [Raloxifene] (1 nM) | 87.1 | 85 | 91.6 | 88.3 | 96.8 | 99.8 | 103 | 101 | 86.1 | 90.8 | 91.2 | 105 | 71.6 | 95.2 | 90.7 | 101 | 110 | 98.2 | 101 | 105 | 105 | 102 | 114 | 108 | 109 | 101 | 97 | 109 | 110 | 99.6 | 101 | 99.7 | 104 | 97.9 | 107 | 102 | 108
